Data set [1] has as its system Pseudomonas aeruginosa (ATCC 15442). Kind of data set: Biocidal activity against simulated biofilm systems (alginate beads). The data set is classed as cell-based. From the text:
A biofilm simulation system, alginate beads, developed by the Biofilm Bozeman Institute Montana (Grobe, K. J, Zahller, J and Stewart P. S., 2002 in “Role of dose concentration in biocide efficacy against Pseudomonas aeruginosa Biofilms”, J. Industrial Microbiology & Biotechnology, vol. 29, pp 10-15), was used in order to evaluate the efficacy of bromine/urea against biofilm.
The biofilm simulation was created by entrapping bacteria in alginate gel beads. A plate of R2A agar was streaked with Pseudomonas aeruginosa (ATCC 15442) and incubated at 35° C. overnight. Buffer phosphate at pH 7.2 was used to scrap off the bacteria from the agar plate and to create a suspension. The bacterial suspension was mixed with an equal volume of an aqueous 4% sodium alginate solution, to make a final 2% alginate solution. The alginate and bacterial slurry were placed in a 50 ml syringe attached to a gauge needle (22), connected to a compressed air tank, allowing the syringe be pressurized. At 20 psig pressure a stream of small drops was forced out and dropped into a stirred solution of 50 mM CaCl2. The Ca^+2 cross linked the alginate, and semi solid beads with entrapped bacterial cells were formed. The beads were allowed to stir in the CaCl2 solution for about 20 minutes, and then rinsed in a dilute 5 mM CaCl2 solution. Several flasks containing 100 beads each were incubated overnight at 35° C. on a rotating shaker in a buffer solution (at pH 7) with 5 mM addition of CaCl2 to maintain the beads structure. The resulting beads diameter is about 2 mm
At the beginning of the experiment, the supernatant of the beads buffer suspension containing 5 mM CaCl2 was decanted and replaced by the 100 ml biocide solution with the required concentration. Chlorourea compositions prepared as in Example 1, and bromourera composition prepared as in Example 2, were used for the biocidal experiments. Urea-bromine compositions prepared by dissolving urea 15.02 g (250.3 mmol, 15% concentration) and 1.17 g Br2 (7.32 mmol, 1.17% concentration) in 84 g H2O (34.2:1 urea:Br2 molar ratio). After different interval contact times, 10 beads were removed and placed in a 5 g/l sodium thiosulfate solution containing 50 mM sodium citrate. The sodium citrate was used to dissolve the alginate gel and release the bacteria into the solution. The neutralizer-citrate solution was placed in the refrigerator for 2 hours, than diluted and placed on R2A agar plates using pour plate technique. The plates were incubated at 35° C. for 24-48 hours and counted. The efficacy and toxicity of the neutralizer were checked as well as a control experiment without biocide addition. Four concentrations (0.5, 1, 2.5 and 5 ppm) were tested at four different contact times (5, 15, 30, and 60 min). Table 1-2 describe the surviving colony forming units (CFU) of the bacteria after different biocides treatment at different contact times.

Data set [2] is described as follows: Stability of the prepared halourea solution. The following applies: aqueous chlorourea solution, 1.27% as total Cl2. Type of data set: physicochemical. The method, then:
In a 250 ml round bottom flask equipped with a magnetic stir bar, a dropping funnel and a thermocouple, 46.04 g urea (Mw 60, 767 mmol) was dissolved in 35.3 g H2O, followed by the addition (upon cooling, exothermic) of 5.37 g of 32% HCl (Mw 36.64, 46.9 mmol). To the solution was added upon cooling 13.3 g of an aq. 10.7% NaOCl solution (wt % as active Cl2, 20 mmol) during 14 min. A slightly yellow solution was obtained retaining 1.27% Cl2 (wt % as total Cl2, iodometric titration, in relation to 1.5% wt % theoretical as Cl2). […] The solution was stable for at least 1 week.
In a 250 ml round bottom flask equipped with a magnetic stir bar, a dropping funnel and a thermocouple, 46 g urea (Mw 60, 767 mmol) was dissolved in 31.8 g H2O, followed by the addition (upon cooling, exothermic) of 8.96 g of 48% HBr (Mw 80.92, 53.15 mmol). To the solution was added upon cooling 13.4 g of an aq. 10.7% NaOCl solution (wt %, as total Cl2, 20.2 mmol) during 10 min. An orange solution was obtained retaining 1% Cl2 (wt %, as total Cl2, iodometric titration, in relation to 1.43% theoretical). […] The solution was stable for at least 24 hrs.

[3] abbreviates: biocide 0.5 ppm as Cl2, contact time 0 (min).
Where [4] appears, read: biocide 0.5 ppm as Cl2, contact time 5 min.
Where [5] appears, read: biocide 0.5 ppm as Cl2, contact time 15 min.
Setting [6] is: biocide 0.5 ppm as Cl2, contact time 30 min.
Setting [7] is: biocide 0.5 ppm as Cl2, contact time 60 min.
The mark [8] stands for this setting: biocide 1 ppm as Cl2, contact time 0 (min).
The mark [9] stands for this setting: biocide 1 ppm as Cl2, contact time 5 min.
[10] abbreviates: biocide 1 ppm as Cl2, contact time 15 min.
Where [11] appears, read: biocide 1 ppm as Cl2, contact time 30 min.
Setting [12] is: biocide 1 ppm as Cl2, contact time 60 min.
[13] abbreviates: biocide 2.5 ppm as Cl2, contact time 0 (min).
Where [14] appears, read: biocide 2.5 ppm as Cl2, contact time 5 min.
The mark [15] stands for this setting: biocide 2.5 ppm as Cl2, contact time 15 min.
Where [16] appears, read: biocide 2.5 ppm as Cl2, contact time 30 min.
Setting [17] is: biocide 2.5 ppm as Cl2, contact time 60 min.
[18] abbreviates: biocide 5 ppm as Cl2, contact time 0 (min).
The mark [19] stands for this setting: biocide 5 ppm as Cl2, contact time 5 min.
Setting [20] is: biocide 5 ppm as Cl2, contact time 15 min.
The mark [21] stands for this setting: biocide 5 ppm as Cl2, contact time 30 min.
Setting [22] is: biocide 5 ppm as Cl2, contact time 60 min.

With `NC(=O)NBr` [bromourea], the “survival of bacteria (CFU)” value in data set [1] (setting [3]) is reported as 9.22 × 10^6 CFU; in data set [1] (setting [4]), 8.10 × 10^6 CFU; in data set [1] (setting [5]) it was 8.00 × 10^6 CFU; in data set [1] (setting [6]), 3.50 × 10^6 CFU; in data set [1] (setting [7]), 7.37 × 10^5 CFU; in data set [1] (setting [8]), 9.22 × 10^6 CFU. Moreover, the “survival of bacteria (CFU)” value in data set [1] (setting [9]) is given as 9.30 × 10^6 CFU; in data set [1] (setting [10]) it was 1.73 × 10^6 CFU; in data set [1] (setting [11]), 1.00 × 10^4 CFU; in data set [1] (setting [12]), less than 1.00 CFU; in data set [1] (setting [13]), 9.22 × 10^6 CFU; in data set [1] (setting [14]), 2.72 × 10^6 CFU. In addition, the “survival of bacteria (CFU)” value is reported as 6.08 × 10^2 CFU in data set [1] (setting [15]); 5.00 × 10^1 CFU in data set [1] (setting [16]); less than 1.00 CFU in data set [1] (setting [17]); 9.22 × 10^6 CFU in data set [1] (setting [18]); 3.00 × 10^5 CFU in data set [1] (setting [19]); less than 1.00 CFU in data set [1] (setting [20]). Further, the “survival of bacteria (CFU)” value in data set [1] (setting [21]) and in data set [1] (setting [22]) was less than 1.00 CFU throughout.
Turning to `NC(=O)NCl` [chlorourea], the “survival of bacteria (CFU)” value is given as 2.28 × 10^7 CFU in data set [1] (setting [3]); 2.80 × 10^7 CFU in data set [1] (setting [4]); 2.43 × 10^7 CFU in data set [1] (setting [5]); 2.28 × 10^7 CFU in data set [1] (setting [6]); 1.00 × 10^7 CFU in data set [1] (setting [7]); 2.28 × 10^7 CFU in data set [1] (setting [8]). For the same compound, the “survival of bacteria (CFU)” value is on record as 1.89 × 10^7 CFU in data set [1] (setting [9]); 1.61 × 10^7 CFU in data set [1] (setting [10]); 1.66 × 10^7 CFU in data set [1] (setting [11]); 6.40 × 10^5 CFU in data set [1] (setting [12]); 2.28 × 10^7 CFU in data set [1] (setting [13]); 2.20 × 10^7 CFU in data set [1] (setting [14]). Further, the “survival of bacteria (CFU)” value was 1.42 × 10^7 CFU in data set [1] (setting [15]); 3.56 × 10^5 CFU in data set [1] (setting [16]); 1.58 × 10^3 CFU in data set [1] (setting [17]); 2.28 × 10^7 CFU in data set [1] (setting [18]); 2.16 × 10^7 CFU in data set [1] (setting [19]); 1.00 × 10^6 CFU in data set [1] (setting [20]). In addition, the figures for the “survival of bacteria (CFU)” value in data set [1] (setting [21]) and in data set [1] (setting [22]) were 3.25 × 10^3 CFU and less than 1.00 CFU, respectively. In addition, in data set [2], the “time for which the solution was stable” value is “at least 1 week”.

These data come from patent publication US9133109B2, “Method for preparing bromourea” (Bromine Compounds Ltd., priority 2010, dated 2015).
